Experimental data: paper PMC7461568, “Novel Cyclic Lipopeptide Antibiotics: Effects of Acyl Chain Length and Position” (International Journal of Molecular Sciences, 2020)
≈ marks a conversion by molar mass, not a printed value. Where two headings read alike, the source gives them in different places. Where a SMILES comes first, the peptide text is derived from it. Bridges are numbered along the chain shown (N, C = ends). [ ]: non-standard residue; d: D form. The star is where a group is joined. Bip = N[C@@H](Cc1ccc(-c2ccccc2)cc1)C(=O)O; 2Nal = N[C@@H](Cc1ccc2ccccc2c1)C(=O)O; X1 = CC[C@H](C)CCCCC(=O)*; Dab = NCC[C@H](N)C(=O)O; Hexanoyl = CCCCCC(=O)*; AEEA = NCCOCCOCC(=O)O; Butyryl = CCCC(=O)*

Tests used:
K. pneumonia ATCC 13883 = format: cell-based, Klebsiella pneumoniae; settings: K. pneumoniae ATCC 13883; MHB-II, inoculum 5 × 10^5 CFU/mL, 37 °C, 18–24 h, visual read-out, triplicate
Description: (§1) In the original report on S3(B), MIC experiments were carried out by using non-cation-adjusted MHB-I media. To this, bovine serum albumin (BSA) and acetic acid were added. The rationale for choosing a medium without cations is that cation-adjusted media (MHB-II) in some cases causes substantial inhibition of the activity of cationic peptides. Furthermore, some peptides are at risk of precipitation when diluted into MHB medium, which can be avoided via the addition of BSA and acetic acid. However, the use of MHB-II is favorable to imitate the in vivo conditions as much as possible. Both media were tested with and without the addition of BSA and acetic acid by trial and error. The use of pure MHB-II was compatible with S3(B) and its fatty acid analogues, and therefore was chosen for the MIC determinations. Noticeably, MHB-I with BSA and acetic acid led to precipitation of lipopeptides in the present work.
(§2) Cation-adjusted Mueller-Hinton broth (MHB-II) media (BD BBLTM Beef extract powder, BD BactoTMCasamino acids, and DIFCO soluble starch was from Becton, Dickinson and Company©, Franklin Lakes, NJ, USA). MHB media supplemented with 0.2% BSA was from Sigma Aldrich (St. Louis, MO, USA) and 0.01% acetic acid from VWR®. The 96 well plate cell-culture cluster, round-bottom, polypropylene plates, and V-shaped 96 well polypropylene plates were purchased from Corning® Inc., Costar®, Corning, NY, USA. Microseal® film was obtained from Bio-Rad Laboratories, Inc., Hercules, CA, USA. A VersaMaxTM Tunable Microplate Reader (Molecular Devices LLC, Sunnyvale, CA, USA) was used and the data were evaluated on a Softmax® Pro (Molecular Devices LLC).
(§3) The MIC experiments were performed according to a protocol adapted from Wiegand et al., with minor modifications. The MICs were determined in triplicate. The peptides were dissolved in Milli-Q water to produce 10 mg/mL stock solutions in small glass containers. The bacterial isolates to be tested were streaked onto agar plates to obtain single colonies, and the plates were incubated at 37 °C for 18–24 h. The strains tested were S. aureus ATCC 29213, P. aeruginosa ATCC 27853, E. coli ATCC 25922, A. baumannii ATCC 19606, and K. pneumonia ATCC 13883. Test compounds were prepared in 2-fold dilutions in 50 μL volumes in polypropylene microtiter plates. Bacterial cultures grown to OD600 = 0.1–0.4 were diluted to a desired OD600 of 0.001–0.002 corresponding to 1 × 10^6 CFU/mL. Next, 50 μL bacterial suspension was added to the microtiter plates, giving a final bacterial inoculum of 5 × 10^5 CFU/mL per well. The plates were incubated at 37 °C for 18–24 h. […] The MIC values were visually evaluated, and the MIC was set to the lowest concentration […] based on triplicate measurements. […]

[1] = Hydrophobicity by analytical RP-HPLC (%B at peak elution); format: physicochemical; settings: chromatographic, percentage of mobile phase B at the peak elution time
Description: To investigate the effect of attaching fatty acids to a macrocycle, fatty acid tails of different lengths were used. When the carbon chain was elongated, the hydrophobicity of the peptide was increased gradually. Herein, the hydrophobicity is expressed as the percentage of mobile phase B at the peak elution time on an RP-HPLC system.

human erythrocytes = assay: Hemolysis of red blood cells; settings: 1 h; for %H, percent hemolytic activity against red blood cells at 150 μM: human erythrocytes, 0.5% v/v RBC suspension in PBS, peptide 150 μM, 37 °C, absorbance 414 nm, melittin positive control, triplicate
Description: The hemolysis experiments were performed according to the protocol described in Reference. The peptides were tested at concentrations from 2.35–150 μM, using melittin as positive control and PBS as negative control. One premade tablet of PBS was dissolved in 200 mL Milli-Q water. The solution was kept in the refrigerator for a maximum of two days. The day before the test, the positive control wells of the 96 well polypropylene plates were precoated with 150 μL of melittin 5 μM solution in PBS. The solution was prepared in Protein LoBind Eppendorf tubes. The day of the test, the solution was discarded and the wells were washed three times with 150 μL PBS. A melittin 2.50 μM solution in PBS was prepared in Protein LoBind Eppendorf tubes—500 μL for every plate to be used. The mass of the peptide needed to reach a final concentration of 300 μM (to start testing down from 150 μM) was calculated, since a volume of 500 μL was desirable. […] The peptides were dissolved in PBS and tested in triplicate.
In a 96 well polypropylene plate, 150 μL of peptide solution was transferred to three wells in Row A. Therefore, each plate could accommodate up to four peptides. A 2-fold serial dilution of the peptides was obtained by transferring 75 μL of the solutions from Row A to the corresponding wells in Row B, mixing a couple of times. From Row B, 75 μL was transferred to Row C and so on until Row G, where 75 μL was discarded after mixing. Volumes of 75 μL melittin (2.50 μM) was transferred to the positive control wells in H1–H6. Preparation of the RBC suspension: 1 mL of whole blood was transferred to a cryotube with 3 mL of PBS, and then it was gently mixed and centrifuged for 8 min at 3000 rpm. The supernatant was discarded, and the process was repeated twice; with 4 mL at 3000 rpm and 4 mL at 4000 rpm, respectively. From the final RBC pellet, 40 μL was transferred to 8 mL of PBS (multiplied by the number of test plates needed). This corresponded to a 0.5% v/v RBC suspension. The suspension was gently mixed and transferred into a CAPPOrigami reservoir. Using a multichannel pipette, 75 μL of the suspension was transferred into each well and mixed in the direction of increasing concentration. The control wells were mixed separately. The plates were covered with BioradMicroseal foil and incubated at 37 °C for 1 h. The plates (maximum two) were centrifuged for 10 min at 4000 rpm, followed by transferring of supernatant (60 μL) from each well into the corresponding wells in a clear ELISA plate. The absorbance (A) of each well was measured at λ = 414 nm using the software program Softmax(R) Pro.

E. coli ATCC 25922 = format: cell-based, Escherichia coli; settings: MHB-II, inoculum 5 × 10^5 CFU/mL, 37 °C, 18–24 h, visual read-out, triplicate
Description: as §1, §2, §3

P. aeruginosa ATCC 27853 [2] = format: cell-based, Pseudomonas aeruginosa; settings: MHB-II, inoculum 5 × 10^5 CFU/mL, 37 °C, 18–24 h, visual read-out, triplicate
Description: as §1, with “The use of pure MHB-II was compatible with S3(B) and its fatty acid analogues, and therefore was chosen for the MIC determinations. Noticeably, MHB-I with BSA and acetic acid led to precipitation of lipopeptides in the present work.” left out
(§4) Cation-adjusted Mueller-Hinton broth (MHB-II) media (BD BBLTM Beef extract powder, BD BactoTMCasamino acids, and DIFCO soluble starch was from Becton, Dickinson and Company©, Franklin Lakes, NJ, USA). […] A VersaMaxTM Tunable Microplate Reader (Molecular Devices LLC, Sunnyvale, CA, USA) was used and the data were evaluated on a Softmax® Pro (Molecular Devices LLC).
(§5) The MIC experiments were performed according to a protocol adapted from Wiegand et al., with minor modifications. The MICs were determined in triplicate. […] The MIC values were visually evaluated, and the MIC was set to the lowest concentration […] based on triplicate measurements. […]

A. baumannii ATCC 19606 = format: cell-based, Acinetobacter baumannii; settings: MHB-II, inoculum 5 × 10^5 CFU/mL, 37 °C, 18–24 h, visual read-out, triplicate
Description: as §1, with “The use of pure MHB-II was compatible with S3(B) and its fatty acid analogues, and therefore was chosen for the MIC determinations. Noticeably, MHB-I with BSA and acetic acid led to precipitation of lipopeptides in the present work.” left out
as §4, §5

P. aeruginosa ATCC 27853 [3] = settings: for log reduction of cell count within first hour of treatment: 1 h, MHB-II, 37 °C, shaking, n = 3
Description: The MIC constitutes a limited measure for antimicrobial activity. It indicates whether or not AMPs in different concentrations are able to prevent visible growth of bacteria.
Time-kill experiments were performed on balanced exponentially growing cultures of P. aeruginosa ATCC 27853. We used balanced cultures as described in Oddo et al.. Briefly, overnight cultures were prepared in MHB-II broth at 37 °C with shaking. Overnight cultures were back-diluted and grown exponentially for no less than 8–10 generations before experimentation. When experiments were done, exponentially growing cultures were back-diluted to an OD600 = 0.0005 approximately 5 × 10^5 CFU, into fresh MHB-II heated to 37 °C. Samples (250 μL) were taken at time points 0, 1, 3, 5, and 24 h. Samples were spun down at 8000× g for 5 min and washed in 1 mL of NaCl 0.9% before being spun down again and re-suspended in 250 μL NaCl 0.9%. From this, 10-fold dilution series were prepared and 10 μL samples were spot-plated in triplicate onto LB-agar. From the undiluted sample, 100 μL samples were also plated, i.e., giving a detection limit of 10 CFU/mL.

S. aureus ATCC 29213 = assay: microbe, parasite or virus in culture; format: cell-based, Staphylococcus aureus; settings: Staphylococcus aureus, ATCC29213, read-out: Minimum inhibitory concentration, SA
Description: as §1, with “The use of pure MHB-II was compatible with S3(B) and its fatty acid analogues, and therefore was chosen for the MIC determinations. Noticeably, MHB-I with BSA and acetic acid led to precipitation of lipopeptides in the present work.” left out
as §4, §5

Compound | Minimum inhibitory concentration, KP (K. pneumonia ATCC 13883) | %B at peak of elution in analytical HPLC (hydrophobicity) [1] | %H, percent hemolytic activity against red blood cells at 150 μM (human erythrocytes) | Minimum inhibitory concentration, EC (E. coli ATCC 25922) | further results
CCCC(=O)NCC[C@@H]1NC(=O)[C@H](CCN)NC(=O)[C@H](CCCNC(=N)N)NC(=O)[C@H](Cc2ccc3ccccc3c2)NC(=O)[C@H](CCN)NC(=O)[C@H](CC(N)=O)NC(=O)[C@H](CCN)NC(=O)[C@H](Cc2ccc3ccccc3c2)NC(=O)COCCOCCNC1=O [(C4)^5] (cyclo([Dab][2Nal]R[Dab][Dab](Butyryl)[AEEA][2Nal][Dab]N)) | >64 µg/mL | 62% | 5% | 64 µg/mL (≈ 50 µM) | %B at peak of elution in analytical HPLC (hydrophobicity) ([1]; listed as (C4)^7): 64%; %H, percent hemolytic activity against red blood cells at 150 μM (human erythrocytes; listed as (C4)^7): 4%
CCCCCC(=O)NCC[C@@H]1NC(=O)[C@H](CCN)NC(=O)[C@H](CCCNC(=N)N)NC(=O)[C@H](Cc2ccc3ccccc3c2)NC(=O)[C@H](CCN)NC(=O)[C@H](CC(N)=O)NC(=O)[C@H](CCN)NC(=O)[C@H](Cc2ccc3ccccc3c2)NC(=O)COCCOCCNC1=O [(C6)^5] (cyclo([Dab][2Nal]R[Dab][Dab](Hexanoyl)[AEEA][2Nal][Dab]N)) | >64 µg/mL | 65% | 13% | 32 µg/mL (≈ 24.5 µM) | %B at peak of elution in analytical HPLC (hydrophobicity) ([1]; listed as (C6)^7): 69%; Minimum inhibitory concentration, PA (P. aeruginosa ATCC 27853 [2]): 16 µg/mL (≈ 12.2 µM); %H, percent hemolytic activity against red blood cells at 150 μM (human erythrocytes; listed as (C6)^7): 8%; Minimum inhibitory concentration, AB (A. baumannii ATCC 19606): 64 µg/mL (≈ 48.9 µM)
CC[C@H](C)CCCCC(=O)N[C@@H](CCN)C(=O)N[C@H](C(=O)N[C@@H](CCN)C(=O)N[C@H]1CCNC(=O)[C@H]([C@@H](C)O)NC(=O)[C@H](CCN)NC(=O)[C@H](CCN)NC(=O)[C@H](CC(C)C)NC(=O)[C@@H](CC(C)C)NC(=O)[C@H](CCN)NC1=O)[C@@H](C)O [Colistin, reference compound] (X1-[Dab]T[Dab][Dab][Dab][dL]L[Dab][Dab]T; lactam 4-C (inferred); N-terminus assumed) | 0.5 µg/mL (≈ 0.428 µM) |  |  | 0.25 µg/mL (≈ 0.214 µM) | log reduction of cell count within first hour of treatment (P. aeruginosa ATCC 27853 [3]; 5 × MIC ((C8)^5 40 μg/mL; colistin 2.5 μg/mL)): 4.5 log; cell count / growth after 24 h (P. aeruginosa ATCC 27853 [3]; 5 × MIC ((C8)^5 40 μg/mL; colistin 2.5 μg/mL), 24 h, detection limit 10 CFU/mL): No growth
N=C(N)NCCC[C@@H]1NC(=O)[C@H](Cc2ccc3ccccc3c2)NC(=O)[C@H](CCN)NC(=O)[C@H](CC(N)=O)NC(=O)[C@H](CCN)NC(=O)[C@H](Cc2ccc3ccccc3c2)NC(=O)COCCOCCNC(=O)[C@H](Cc2ccc(-c3ccccc3)cc2)NC(=O)[C@H](CCN)NC1=O [S3(B)] (cyclo([Dab][2Nal]R[Dab][Bip][AEEA][2Nal][Dab]N)) |  | 71% | 77% |  | log reduction of cell count within first hour of treatment (P. aeruginosa ATCC 27853 [3]; 1 × MIC (8 μg/mL)): 2.5 log; HD50 (hemolysis) (human erythrocytes; red cells of human): 69 µM
CN[C@H](CC(C)C)C(=O)N[C@H]1C(=O)N[C@@H](CC(N)=O)C(=O)N[C@H]2C(=O)N[C@H]3C(=O)N[C@H](C(=O)N[C@H](C(=O)O)c4cc(O)cc(O)c4-c4cc3ccc4O)[C@H](O)c3ccc(c(Cl)c3)Oc3cc2cc(c3O[C@@H]2O[C@H](CO)[C@@H](O)[C@H](O)[C@H]2O[C@H]2C[C@](C)(N)[C@H](O)[C@H](C)O2)Oc2ccc(cc2Cl)[C@H]1O [Vancomycin, reference compound] |  |  |  |  | MIC (S. aureus ATCC 29213): 0.5 µg/mL (≈ 0.345 µM)
